Reference: US20230014352A1, “INHALED STATINS AS BRONCHODILATORS TO IMPROVE LUNG FUNCTION IN RESPIRATORY DISEASES” (priority 2019, published 2023)
“Also recorded” adds a separate entry of the source.

Legend:
[1] = system: primary human airway smooth muscle (ASM) cells; assay: Contractile force screening (CFS), basal ASM cell contraction (strain energy); type: cell-based; conditions: for strain energy (ASM contraction): compared to pravastatin; for basal ASM cell contraction: FIG. 1A/1D; for reversibility of force inhibitory effect: media without Pit after treatment, FIG. 10D
Protocol: Primary human airway smooth muscle (ASM) cells derived from both non-asthmatic and asthmatic donors were obtained from the Gift of Hope Organ and Tissue Donor Network. These cells have been well-characterized previously (see for example H. Yoshie et al., Biophys J (2018) 114(9):2194-99). All measurements were performed using cells at passage 5-8 from three non-asthmatic donors. Cells were grown on either 10% serum-containing F12 complete media, or serum-deprived media supplemented with insulin, transferrin, and selenium (Corning, Tewksbury, Mass.). Contractile Force Screening: Human ASM cells were grown to confluence in 96-well plates on custom NuSilTM 8100 elastic substrates (Avantor, Inc., Radnor, Pa.) (R. […] Fluorescent beads (diameter 400 nm) were embedded in the substrate surface to enable traction force calculations based on their displacements. To measure fractions, an inverted epi-fluorescence microscope (DMI 6000B, Leica Inc., Germany) equipped with a heated chamber (37° C.), a monochrome camera ([…]), and a motorized stage was used. Spatial images were recorded of substrate-embedded fluorescent beads at 10× magnification. Based on the bead displacements (resolution 15 μm) relative to a cell-free model, together with knowledge of substrate stiffness and thickness, fractions were computed using the approach of Fourier Transform Traction Cytometry ([…] et al., Pharmacol Ther (2014) 143(1):87-110), modified to the case of cell monolayers ([…] et al., Cell (2007) 129(3):511-22). From each fraction map, the root-mean-squared traction (RMST) value and strain energy were calculated and reported as a measure of normal contraction in the monolayer. On a well-by-well basis, the ratio of the strain energy after vs. before treatment was computed, and all values of a given treatment group were normalized to the mean of each treatment group. Comparison of Statins: […] MA is the immediate product of HMGCR action on HMB-CoA, so addition of MA would reverse the effect of statin inhibition of HMGCR. […] Simvastatin-acid (SA), atorvastatin, pravastatin, and pitavastatin were examined with CFS to determine the dose response of the ASM relaxation effect. […] From each ASM force map, the strain energy (i.e., the energy that is imparted to the substrate by the contractile cells, in pJ) was computed, to represent the average cellular contraction.

[2] = system: human ASM cells, histamine-induced contraction; assay: Contractile force screening, histamine-induced ASM contraction; type: cell-based
Protocol: Contractile Force Screening: Human ASM cells were grown to confluence in 96-well plates on custom NuSil™ 8100 elastic substrates (Avantor, Inc., Radnor, Pa.) (R. Rokhzan et al., Lab Invest (2019) 99(1):138-45). Fluorescent beads (diameter ˜400 nm) were embedded in the substrate surface to enable traction force calculations based on their displacements. To measure fractions, an inverted epi-fluorescence microscope (DMI 6000B, Leica Inc., Germany) equipped with a heated chamber (37° C.), a monochrome camera (Leica DFC365 FX), and a motorized stage was used. Spatial images were recorded of substrate-embedded fluorescent beads at 10× magnification. Based on the bead displacements (resolution ˜15 μm) relative to a cell-free model, together with knowledge of substrate stiffness and thickness, fractions were computed using the approach of Fourier Transform Traction Cytometry (B. Yeganeh et al., Pharmacol Ther (2014) 143(1):87-110), modified to the case of cell monolayers (E. J. Whalen et al., Cell (2007) 129(3):511-22). From each fraction map, the root-mean-squared traction (RMST) value and strain energy were calculated and reported as a measure of normal contraction in the monolayer. On a well-by-well basis, the ratio of the strain energy after vs. before treatment was computed, and all values of a given treatment group were normalized to the mean of each treatment group.
In complete media, 0.08 μM pitavastatin is sufficient to inhibit histamine-mediated ASM contraction (FIG. 4A).

airways of C57BL/6 mice = assay: Non-inflammatory methacholine (MCh)-induced hypercontractile mouse model, airway % contraction in precision-cut lung slices; type: in vivo; conditions: intratracheal 5 mg/kg for 5 days, 1 hr prior to each MCh nebulization
Protocol: In this model, mice were administered nebulized methacholine (MCh) during postnatal maturation of ASM, which causes a hypercontractile phenotype without any induction of inflammatory responses.
All mouse experiments were approved by the Institutional Animal Care and Use Committee at Brigham & Women's Hospital, Harvard Medical School. The methacholine-induced hypercontractile mouse model has been described in K. R. Patel et al., FASEB J (2017) 31(10):4335-46. Briefly, mice (C57BL/6) were exposed to nebulized MCh (30 mg/mL) for 10 min daily between P15 and −20 (5 days). Control mice were administered nebulized normal saline. This establishes the MCh hyper-contractility asthma phenotype, a non-inflammatory model of asthmatic airway hyperresponsiveness AHR. Mice were administered intratracheal (i.t.) pitavastatin (5 mg/kg for five days) or vehicle control for 1 hour before each MCh nebulization. For airway % contraction assays, mouse precision-cut lung slices (PCLS) were stimulated to contract by increasing MCh concentrations (0.1-100 μM). For each measurement, at least n=4 mice were used from 2 independent experiments, and a total of 20-30 airways per lung.

[3] = system: Rho kinase (ROCK-1) phosphorylation; assay: Histamine-induced ROCK-1 phosphorylation, western blot; type: cell-based, human; conditions: 24 hrs; for inhibitory effect on ROCK-1 phosphorylation with mevalonate co-treatment: 1 μM with MA 200 μM
Protocol: Antibodies for western blot analysis against total and phospho-MLC2 were obtained from Santa Cruz Biotechnology and Cell Signaling Technology, respectively. Antibodies for pROCK1, total ROCK1, and GAPDH were obtained from Abcam. Pitavastatin was obtained from Santa Cruz Biotechnology.
Human ASM cells were treated with pitavastatin (1 μM) with or without mevalonate (MA, 200 μM) for 24 hours, then treated with histamine (10 μM) for 5 minutes.

[4] = system: primary human airway smooth muscle (ASM) cells; assay: Contractile force screening (CFS), basal ASM cell contraction (strain energy); type: cell-based; conditions: donors D1-D6, FIG. 11A
[5] = 1 μM, serum-deprived media, FIG. 10B

Question: For `O=C(O)C[C@H](O)C[C@H](O)/C=C/c1c(C2CC2)nc2ccccc2c1-c1ccc(F)cc1` [pitavastatin], which “inhibitory potency on ASM contraction, dose-response ranking” value ([1]; 0-10 μM, FIG. 1C, 1D) is on record?
Answer: most significant effect

Question: What about the “strain energy (ASM contraction)” value ([1]; 0.4 μM, 24 hours, FIG. 1C) of the same compound?
Answer: significant reduction in strain energy

Question: And the “basal ASM cell contraction” value ([1]; 1 μM, 24 hours)?
Answer: potently and significantly inhibits basal ASM contraction

Question: And the “basal ASM cell contraction” value ([1]; 1 μM, 24 hours, listed as Pitavastatin)?
Answer: more potent

Question: What about the “relaxation effect at 24 hrs compared to simvastatin” value [1, 5] of the same compound?
Answer: more significant at 24 hrs

Question: What about the “relaxation effect at 24 hrs compared to simvastatin” value ([1]; 1 μM, serum-deprived media, FIG. 10B, listed as Pit) of the same compound?
Answer: significantly more efficacious than Sim

Question: And the “ASM relaxation over time compared to simvastatin” value ([1]; 1 μM, all time points including 24 hours, with or without media starvation, FIG. 4C)?
Answer: greater ASM relaxation than simvastatin

Question: And the “reversibility of force inhibitory effect” value ([1]; 1 μM)?
Answer: reversible

Question: And the “reversibility of force inhibitory effect” value ([1]; 1 μM, listed as Pit)?
Answer: reversed

Question: And the “ASM contraction over time compared to control” value [1, 5]?
Answer: reduced ASM contraction time-dependently

Question: And the “strain energy (ASM contraction)” value ([1]; 2 and 10 μM, 24 hours, FIG. 1C)?
Answer: significantly (and further) reduce strain energy

Question: And the “ASM contraction / ASM cell relaxation” value ([1]; FIG. 10A)?
Answer: inhibited ASM contraction

Question: What about the “dose-dependent effect on ASM” value ([1]; primary ASM cells from three different human donors, FIG. 3) of the same compound?
Answer: dose-dependently relax ASM

Question: And the “potency on basal ASM contraction relative to simvastatin” value ([1]; same dose, 1 μM, 24 hours, FIG. 1D)?
Answer: more potent than simvastatin

Question: What about the “start of ASM relaxing effects” value ([1]; time-dependent effects, FIG. 4C) of the same compound?
Answer: 4 h

Question: What about the “potency relative to SA in prevention of histamine-induced ASM contraction” value [2] of the same compound?
Answer: at least 5 times

Question: And the “histamine-induced ASM contraction” value ([2]; 0.4 μM statin, 24 hrs)?
Answer: renders histamine ineffective at inducing ASM contraction

Question: What about the “histamine-induced ASM contraction” value ([2]; 0.4 μM statin, 24 hrs, listed as Pit) of the same compound?
Answer: inhibits histamine-induced ASM contraction

Question: What about the “concentration sufficient to inhibit histamine-mediated ASM contraction” value ([2]; complete media, FIG. 4A) of the same compound?
Answer: 0.08 µM

Question: And the “potency ranking on histamine-induced ASM contraction” value ([2]; pitavastatin, simvastatin, atorvastatin)?
Answer: most potent of the three drugs

Question: What about the “histamine-induced ASM contraction” value ([2]; pre-treatment 24 hrs, histamine 10 μM, FIG. 4A/4B) of the same compound?
Answer: significantly reduced histamine-induced ASM contraction; also recorded: potently and significantly inhibited

Question: What about the “concentration providing a similar extent of protection from histamine-induced contraction” value ([2]; serum starved media) of the same compound?
Answer: 0.4 µM

Question: What about the “% airway contraction” value (airways of C57BL/6 mice; FIG. 11B) of the same compound?
Answer: 14.2%

Question: What about the “% contraction of airways” value (airways of C57BL/6 mice; PCLS response to 500 nM MCh, FIG. 6) of the same compound?
Answer: 7.3%

Question: And the “inhibitory effect on ROCK-1 phosphorylation with mevalonate co-treatment” value [3]?
Answer: abrogated

Question: And the “inhibitory effect on ROCK-1 phosphorylation with mevalonate co-treatment” value ([3]; listed as Pit)?
Answer: abrogates

Question: What about the “histamine-induced ROCK1 phosphorylation” value ([3]; 1 μM, histamine 10 μM, 5 min, FIG. 5A) of the same compound?
Answer: significantly reduced; also recorded: inhibits

Question: What about the “ASM contraction in asthmatic and non-asthmatic donor cells” value [4] of the same compound?
Answer: dose-dependently inhibited ASM contraction; also recorded: inhibited ASM contraction dose-dependently
